Laboratory results reported in ChEMBL document CHEMBL5236656, “The effect of diphenylethane side-chain substituents on dibenzocyclohexadiene formation and their inhibition of α-synuclein aggregation in vitro” (Bioorg Med Chem, 2023).

Legend:
[1] = biological target: Alpha-synuclein (Homo sapiens) (UniProt P37840); assay: Inhibition of alpha-Synuclein (unknown origin) aggregation assessed as aggregation by measuring ThT fluorescence at 500 uM incubated for 5 days by ThT fluorescence assay (reference value: 100%); design: scale not given: the % may be the effect or the level left; settings: time 5.0 day
[2] = biological target: Alpha-synuclein (Homo sapiens) (UniProt P37840); assay: Inhibition of alpha-Synuclein (unknown origin) aggregation assessed as aggregation by measuring ThT fluorescence at 100 uM incubated for 5 days by ThT fluorescence assay (reference value: 100%); design: scale not given: the % may be the effect or the level left; settings: time 5.0 day

Activity [1] [%] | Activity [2] [%] | SMILES
13.6 | 28.6 | C[C@@H]1Cc2cc(O)c(O)cc2-c2cc(O)c(O)cc2C[C@@H]1C
25.9 | 33.6 | Oc1cc2ccc3cc(O)c(O)cc3c2cc1O
15.5 | 36.1 | CC1(C)c2cc(O)c(O)cc2-c2c(ccc(O)c2O)C1(C)C
19.3 | 47.3 | Cc1c(C)c2cc(O)c(O)cc2c2cc(O)c(O)cc12
39.8 | 56.1 | CC1(C)c2cc(O)c(O)cc2-c2cc(O)c(O)cc2C1(C)C
16.8 | 22.2 | Oc1cc2c(cc1O)-c1cc(O)c(O)cc1CC2

The next lines start with the molecule.

SMILES | Activity [1] [%] | Activity [2] [%]
Oc1cc2c(cc1O)-c1c(ccc(O)c1O)CC2 | 10.7 | 27.8
CC(c1ccc(O)c(O)c1)C(C)c1ccc(O)c(O)c1 (mixture of isomers) | 6.1 | 31.8
CC1c2cc(O)c(O)cc2-c2c(ccc(O)c2O)C1C (configuration not stated) | 45.6 | 66.1
CC(C)(c1ccc(O)c(O)c1)C(C)(C)c1ccc(O)c(O)c1 | 9.2 | 44.4
Oc1ccc(CCc2ccc(O)c(O)c2)cc1O | 8.1 | 35.6
